Laboratory results reported in patent US10906899B2, “Bicyclic fused pyrazole derivatives for the treatment of RSV” (GEORGIA STATE UNIVERSITY RESEARCH FOUNDATION, INC., priority 2016, dated 2021).

These molecules were tested on RSV (assay: Dose-response counterscreen: luciferase reporter virus infection of BEAS-2B cells (EC50)). Conditions: human respiratory syncytial virus, A series compounds, anti-RSV potency, read-out: Potency Range (EC50 values).
Format: cell-based, respiratory syncytial virus (RSV)

| SMILES | EC50 |
| --- | --- |
| COc1ccc(C2CC(=O)Nc3[nH]ncc32)cc1OC1CCCC1 (stereo not shown) [AVG-069, 4-(3-(cyclopentyloxy)-4-methoxyphenyl)-4,5-dihydro-1H-pyrazolo[3,4-b]pyridin-6(7H)-one] | > 20 µM |
| COc1cc(C2CC(=O)Nc3c2cnn3-c2ccccc2)ccc1OC1CCCC1 (stereo not shown) [AVG-066] | 10 to 20 µM |
| COc1cc(C2CC(=O)Nc3c2cnn3-c2ccccn2)ccc1OC1CCCC1 (stereo not shown) [AVG-180] | 10 to 20 µM |
| COc1cc(C2CC(=O)Nc3nn(-c4ccccn4)cc32)ccc1OC1CCCC1 (stereo not shown) [AVG-180b] | 10 to 20 µM |
| COc1ccc(C2CC(=O)Nc3c2cnn3-c2ccccn2)cc1OC1CCCC1 (stereo not shown) [AVG-116] | 1 to 10 µM |

Same assay, conditions: human respiratory syncytial virus, B series compounds, read-out: Potency Range (EC50 values)

| SMILES | EC50 |
| --- | --- |
| Cc1cccc2nc(-n3c(=O)c4c(C)n(Cc5cccc(Cl)n5)c(=O)cc4n3Cc3ccccc3)sc12 [AVG-194] | 0.1 to 1 µM |
| Cc1c2c(=O)n(-c3nc4ccccc4s3)n(Cc3ccccc3)c2cc(=O)n1Cc1ccc(Cl)cc1 [AVG-031] | 0.1 to 1 µM |
| COc1cccc(Cn2c(C)c3c(=O)n(-c4ccccn4)n(Cc4ccc(OC(C)C)cc4)c3cc2=O)n1 [AVG-253] | 0.1 to 1 µM |
| Cc1c2c(=O)n(-c3nc4ccccc4s3)n(Cc3cccc(Cl)c3)c2cc(=O)n1Cc1cccc(Cl)n1 [AVG-174] | 1 to 10 µM |
| COc1ccc(Cn2c3cc(=O)n(Cc4cccc(OC(C)C)n4)c(C)c3c(=O)n2-c2ccccn2)cc1 [AVG-254] | 0.1 to 1 µM |
| Cc1c2c(=O)n(-c3ccccn3)n(Cc3ccccc3)c2cc(=O)n1Cc1ccc(Cl)c(Cl)n1 [AVG-172] | 0.1 to 1 µM |
| Cc1c2c(=O)n(-c3nc4ccccc4s3)n(Cc3cocn3)c2cc(=O)n1Cc1ccco1 [AVG-125] | > 20 µM |
| Cc1c2c(=O)n(-c3nc4ccc(OC(C)C)cc4s3)n(Cc3ccccc3)c2cc(=O)n1Cc1cccc(Cl)n1 [AVG-256] | 0.01 to 0.1 µM |
| COc1ccc(Cn2c3cc(=O)n(Cc4cccc(Cl)n4)c(C)c3c(=O)n2-c2ccccn2)cc1 [AVG-233] | 0.01 to 0.1 µM |
| Cc1c2c(=O)n(-c3nc4cnccc4s3)n(Cc3ccccc3)c2cc(=O)n1Cc1cccc(Cl)n1 [AVG-196] | 10 to 20 µM |
| Cc1c2c(=O)n(-c3nc4ccccc4s3)n(Cc3ccccc3)c2cc(=O)n1Cc1ncccn1 [AVG-090] | 10 to 20 µM |
| Cc1c2c(=O)n(-c3nc4ccccc4s3)n(Cc3ccccc3)c2cc(=O)n1C1CCOCC1 [AVG-043] | 10 to 20 µM |
| Cc1c2c(=O)n(-c3nc4ccccc4s3)[nH]c2cc(=O)n1Cc1ccco1 [AVG-022, 2-(benzo[d]thiazol-2-yl)-5-(furan-2-ylmethyl)-4-methyl-1H-pyrazolo[4,3-c]pyridine-3,6(2H, 5H)-dione] | 0.1 to 1 µM |
| COc1cccc(Cn2c(C)c3c(=O)n(-c4cc(Cl)ccn4)n(Cc4ccccc4)c3cc2=O)n1 [AVG-245] | 0.1 to 1 µM |
| Cc1c2c(=O)n(-c3nc4ccccc4s3)n(CC3CCCOC3)c2cc(=O)n1Cc1ccco1 (stereo not shown) [AVG-072] | 1 to 10 µM |
| COc1ccc(Cn2c3cc(=O)n(Cc4cccc(Cl)n4)c(C)c3c(=O)n2-c2nc3ccccc3s2)cc1 [AVG-178] | 0.01 to 0.1 µM |
| Cc1ccc2nc(-n3c(=O)c4c(C)n(Cc5cccc(Cl)n5)c(=O)cc4n3Cc3ccccc3)sc2c1 [AVG-193] | 0.1 to 1 µM |
| Cc1c2c(=O)n(-c3nc4ccccc4s3)n(Cc3ccco3)c2cc(=O)n1Cc1ccco1 [AVG-122] | 1 to 10 µM |
| Cc1c2c(=O)n(-c3nc4ccccc4s3)n(Cc3ccccc3)c2cc(=O)n1Cc1cccc(Cl)c1 [AVG-077] | 0.1 to 1 µM |
| CC(C)c1c2c(=O)n(-c3nc4ccccc4s3)n(Cc3ccccc3)c2cc(=O)n1Cc1cccc(Cl)n1 [AVG-166] | 1 to 10 µM |
| CCOc1cccc(Cn2c(C)c3c(=O)n(-c4nc5ccccc5s4)n(Cc4ccccc4)c3cc2=O)n1 [AVG-204] | 0.1 to 1 µM |
| Cc1c2c(=O)n(-c3nc4ccccc4s3)n(Cc3ccccc3)c2cc(=O)n1Cc1cccc(F)n1 [AVG-214] | 0.1 to 1 µM |
| Cc1c2c(=O)n(-c3ccco3)n(Cc3ccccc3)c2cc(=O)n1Cc1ccccn1 [AVG-110] | 10 to 20 µM |
| COc1ccccc1Cn1c(C)c2c(=O)n(-c3ccccn3)n(Cc3ccccc3)c2cc1=O [AVG-133] | 0.1 to 1 µM |

| SMILES | EC50 |
| --- | --- |
| COc1ccc(Cn2c(C)c3c(=O)n(-c4ccccn4)n(Cc4ccccc4)c3cc2=O)cc1 [AVG-132] | 1 to 10 µM |
| Cc1c2c(=O)n(-c3nc4ccccc4s3)n(C)c2cc(=O)n1CCN1CCOCC1 [AVG-029] | > 20 µM |
| Cc1c2c(=O)n(-c3nc4ccccc4s3)n(Cc3ccccc3)c2cc(=O)n1CC1CCC(=O)N1 (stereo not shown) [AVG-213] | 1 to 10 µM |
| Cc1c2c(=O)n(-c3nc4ccccc4s3)n(Cc3ccccc3)c2cc(=O)n1C(C)c1cccc(Cl)n1 (stereo not shown) [AVG-170] | 1 to 10 µM |
| Cc1c2c(=O)n(-c3ccccn3)n(Cc3ccccc3)c2cc(=O)n1Cc1cccc(Cl)n1 [AVG-171] | 0.01 to 0.1 µM |
| Cc1c2c(=O)n(-c3nc4ccccc4s3)n(Cc3ccccc3)c2cc(=O)n1Cc1cccc(OCCCN(C)C)n1 [AVG-207] | 1 to 10 µM |
| Cc1c2c(=O)n(-c3nc4ccccc4s3)n(Cc3ccccc3)c2cc(=O)n1C1CCNCC1 [AVG-041] | 1 to 10 µM |
| Cc1c2c(=O)n(-c3nc4ccccc4s3)n(Cc3ccccc3)c2cc(=O)n1Cc1ccncc1 [AVG-089] | 1 to 10 µM |
| Cc1c2c(=O)n(-c3cc4ccccc4cn3)n(Cc3ccccc3)c2cc(=O)n1Cc1ccco1 [AVG-034] | 1 to 10 µM |
| Cc1c2c(=O)n(-c3nc4ccccc4s3)n(Cc3ccccc3Cl)c2cc(=O)n1Cc1cccc(Cl)n1 [AVG-175] | 1 to 10 µM |
| Cc1c2c(=O)n(-c3ccccn3)n(Cc3ccccc3)c2cc(=O)n1Cc1cccc(-c2ccccc2)n1 [AVG-229] | 0.1 to 1 µM |
| Cc1c2c(=O)n(-c3nc4ccccc4s3)n(Cc3ccccc3)c2cc(=O)n1Cc1nccn1C [AVG-098] | 1 to 10 µM |
| Cc1c2c(=O)n(-c3nc4ccccc4s3)n(Cc3ccccc3)c2cc(=O)n1CC1CCOCC1 [AVG-040] | 1 to 10 µM |
| Cc1c2c(=O)n(-c3ccccn3)n(Cc3ccccc3)c2cc(=O)n1Cc1cccc(Cl)c1 [AVG-128] | 0.1 to 1 µM |
| Cc1c2c(=O)n(-c3ccccn3)n(Cc3ccc(OC(C)C)cc3)c2cc(=O)n1Cc1cccc(Cl)n1 [AVG-234] | 0.1 to 1 µM |
| Cc1c2c(=O)n(-c3nc4ccccc4s3)n(Cc3ccccc3)c2cc(=O)n1Cc1cccc(C(F)(F)F)n1 [AVG-201] | 0.1 to 1 µM |
| Cc1c2c(=O)n(-c3ccccn3)n(Cc3ccccc3)c2cc(=O)n1Cc1ccccc1F [AVG-130] | 0.1 to 1 µM |
| Cc1c2c(=O)n(-c3ccccn3)n(Cc3ccccc3)c2cc(=O)n1Cc1ccccn1 [AVG-104] | 1 to 10 µM |
| Cc1c2c(=O)n(-c3nc4ccccc4s3)n(Cc3ccccc3)c2cc(=O)n1Cc1cccc(OC2CCN(C)CC2)n1 [AVG-208] | 1 to 10 µM |
| Cc1c2c(=O)n(-c3nc4c(Cl)cccc4s3)n(Cc3ccccc3)c2cc(=O)n1Cc1cccc(Cl)n1 [AVG-183] | 0.01 to 0.1 µM |
| Cc1c2c(=O)n(-c3cccnn3)n(Cc3ccccc3)c2cc(=O)n1Cc1ccco1 [AVG-109] | 1 to 10 µM |
| Cc1c2c(=O)n(-c3nc4ccccc4s3)n(Cc3ccccc3)c2cc(=O)n1Cc1ccc(Cl)cn1 [AVG-095] | 1 to 10 µM |
| COc1ccc(Cn2c3cc(=O)n(Cc4cccc(OC)n4)c(C)c3c(=O)n2-c2nc3ccccc3s2)cc1 [AVG-231] | 0.01 to 0.1 µM |
| Cc1c2c(=O)n(-c3nc4ccccc4s3)n(Cc3ccoc3)c2cc(=O)n1Cc1ccco1 [AVG-123] | 10 to 20 µM |

| SMILES | EC50 |
| --- | --- |
| Cc1c2c(=O)n(-c3ccccn3)n(Cc3ccccc3)c2cc(=O)n1Cc1cccc(OC(C)C)n1 [AVG-230] | 0.1 to 1 µM |
| Cc1c2c(=O)n(-c3nc4ccccc4s3)n(CC3CCN(C)CC3)c2cc(=O)n1Cc1ccco1 [AVG-027] | 10 to 20 µM |
| Cc1c2c(=O)n(-c3nc4ccccc4s3)n(CC3CCOCC3)c2cc(=O)n1Cc1ccco1 [AVG-025] | 1 to 10 µM |
| Cc1c2c(=O)n(-c3nc4ccccc4s3)n(C)c2cc(=O)n1Cc1ccco1 [AVG-023] | > 20 µM |
| Cc1c2c(=O)n(-c3nc4cc(Cl)ccc4s3)n(Cc3ccccc3)c2cc(=O)n1Cc1cccc(Cl)n1 [AVG-184] | 1 to 10 µM |
| Cc1c2c(=O)n(-c3nc4ccccc4s3)n(Cc3ccccc3)c2cc(=O)n1Cc1ncc[nH]1 [AVG-097] | 1 to 10 µM |
| COc1cccc(Cn2c(C)c3c(=O)n(-c4ccccn4)n(Cc4ccccc4)c3cc2=O)n1 [AVG-203] | 0.01 to 0.1 µM |
| Cc1c2c(=O)n(-c3nc4ccccc4s3)n(Cc3ccccc3)c2cc(=O)n1CC1CCOC1 (stereo not shown) [AVG-075] | 1 to 10 µM |
| Cc1c2c(=O)n(-c3nc4ncccc4s3)n(Cc3ccccc3)c2cc(=O)n1Cc1cccc(Cl)n1 [AVG-195] | 0.01 to 0.1 µM |
| Cc1c2c(=O)n(-c3nc4ccccc4s3)n(Cc3ccccc3)c2cc(=O)n1Cc1cccc(OCCN(C)C)n1 [AVG-206] | 1 to 10 µM |
| Cc1c2c(=O)n(-c3nc4ccccc4s3)n(CC(C)C)c2cc(=O)n1Cc1ccco1 [AVG-070] | 1 to 10 µM |
| Cc1c2c(=O)n(-c3ccccc3)n(Cc3ccccc3)c2cc(=O)n1Cc1ccccn1 [AVG-107] | 1 to 10 µM |
| Cc1c2c(=O)n(-c3nc4ccccc4s3)n(Cc3ccccc3)c2cc(=O)n1Cc1cccc(N2CCOCC2)n1 [AVG-228] | 0.1 to 1 µM |
| Cc1c2c(=O)n(-c3nc4ccccc4s3)n(Cc3ccccc3)c2cc(=O)n1Cc1ncccc1Cl [AVG-161] | 1 to 10 µM |
| Cc1c2c(=O)n(-c3nc4ccccc4s3)n(CC3CCCC3)c2cc(=O)n1Cc1ccco1 [AVG-071] | 1 to 10 µM |
| Cc1c2c(=O)n(-c3nc4ccccc4s3)n(Cc3ccccc3)c2cc(=O)n1Cc1ccc(Cl)c(Cl)n1 [AVG-168] | 0.1 to 1 µM |
| COc1ccc2sc(-n3c(=O)c4c(C)n(Cc5cccc(Cl)n5)c(=O)cc4n3Cc3ccccc3)nc2c1 [AVG-188] | 0.1 to 1 µM |
| Cc1c2c(=O)[nH]n(Cc3ccccc3)c2cc(=O)n1Cc1ccccn1 [AVG-200] | > 20 µM |
| Cc1c2c(=O)n(-c3ccccn3)n(Cc3ccccc3)c2cc(=O)n1Cc1nc(Cl)cs1 [AVG-252] | 0.1 to 1 µM |
| Cc1c2c(=O)n(-c3ccccn3)n(Cc3ccccc3)c2cc(=O)n1Cc1ccccc1Cl [AVG-127] | 0.1 to 1 µM |
| Cc1c2c(=O)n(-c3nc4ccccc4s3)n(Cc3ccccc3)c2cc(=O)n1Cc1cnccn1 [AVG-093] | 0.1 to 1 µM |
| Cc1c2c(=O)n(-c3nc4ccccc4s3)n(Cc3ncco3)c2cc(=O)n1Cc1ccco1 [AVG-124] | 1 to 10 µM |
| Cc1c2c(=O)n(-c3nc4ccccc4s3)n(Cc3ccccc3)c2cc(=O)n1CCN1CCOCC1 [AVG-028] | 1 to 10 µM |
